Assay results taken from patent US8703790B2, “Bis [O-(14-benzoylaconine-8-yl)] esters” (priority 2008, dated 2014).

Key:
[1] = system: A549; test: Cell cycle arrest, propidium iodide flow cytometry, A549; type: cell-based, human
Procedure: 10^6 Cells of A549, HCT-15 and MCF-7 cell lines have been seeded in Petri dishes with RPMI-1640 medium. 24 h later, SDD has been dissolved in water at a concentration of 20 μM and was directly added to the culture medium. Contact was maintained for 72 h. Then, cells have been detached by trypsinization, collected and rinsed by PBS and counted on hemocytometer. Cells were centrifuged for 5 min at 1500 rpm, then resuspended in a defined volume of PBS to obtain 2.5×10^6 cell/mL. 100 μL of cell suspension was digested to nuclei by trypsin for 10 min. Then, a solution containing trypsin inhibitor and RNAse was added to cell suspension and left for 10 min. Finally, cells were stained by propidium iodide and were analysed by flow-cytometry apparatus. Distribution of cells among the different phases of the cycle was determined by the procedure disclosed in: A detergent-trypsin method for preparation of nuclei for flow cytometric DNA analysis. Vindelov, L.; Christensen, I.; Nissen, N.; Cytometry (1983), 3, 323-327.
• G0G1: cell in the phase of GOG1 • G2M: cells in the phase of G2M • S: cells in the phase of DNA synthesis • Sub G1: apoptotic cells • SUP G2M: diploidic cells

[2] = molecular target: T1, purified human recombinant Top 1 (Homo sapiens, UniProt P11387); test: Top1-catalysed cleavage assay; type: biochemical; settings: 1, 10, 100 and 1000 μM
T1 sequence (P11387 1-765): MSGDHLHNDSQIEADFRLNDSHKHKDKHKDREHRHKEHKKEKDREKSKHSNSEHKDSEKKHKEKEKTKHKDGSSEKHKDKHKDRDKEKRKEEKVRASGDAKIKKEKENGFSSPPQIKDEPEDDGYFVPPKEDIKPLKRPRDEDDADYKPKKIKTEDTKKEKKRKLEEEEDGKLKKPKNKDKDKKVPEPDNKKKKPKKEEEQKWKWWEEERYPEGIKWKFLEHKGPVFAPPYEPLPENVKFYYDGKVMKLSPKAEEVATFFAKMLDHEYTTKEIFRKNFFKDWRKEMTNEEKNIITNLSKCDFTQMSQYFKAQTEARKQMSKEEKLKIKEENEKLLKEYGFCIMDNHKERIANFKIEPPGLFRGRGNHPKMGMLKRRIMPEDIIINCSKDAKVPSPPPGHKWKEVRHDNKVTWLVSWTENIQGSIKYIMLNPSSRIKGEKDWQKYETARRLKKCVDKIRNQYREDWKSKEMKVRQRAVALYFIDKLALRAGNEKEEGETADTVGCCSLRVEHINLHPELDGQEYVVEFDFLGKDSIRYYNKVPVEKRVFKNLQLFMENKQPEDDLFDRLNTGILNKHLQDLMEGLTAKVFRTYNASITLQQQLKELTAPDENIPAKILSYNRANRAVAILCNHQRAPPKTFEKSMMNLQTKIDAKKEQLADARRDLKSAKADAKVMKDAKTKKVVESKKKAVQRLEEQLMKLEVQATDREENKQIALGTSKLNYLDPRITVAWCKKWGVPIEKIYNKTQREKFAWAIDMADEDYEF
Procedure: The influence of SDD has been studied at various concentrations on Top 1 cleavage activity in comparison with Camptothecin.
The method consists in an incubation of 3′-labeled oligonucleotides with enzyme Top1, or Top 1+CPT or Top 1-SDD.
3′-end labelling of the scissile strand was performed as described previously in the publication: Conversion of topoisomerase I cleavage complexes on the leading strand of ribosomal DNA into 5′-phosphorylated DNA double-strand breaks by replication runoff. Pommier, Y.; Jenkins, J.; Kohlhagen, G.; and Leteurtre, F.; Mutat. Res. (1995), 337, 135-145.
Thus, 10 pmol of […] was incubated in labelling buffer (100 mM potassium cacodylate, pH 7.2, 2 mM CaCl2, 200 μM DTT) for 1 h at 37° C.
The reaction mixture was passed through a G-25 Sephadex spin column by centrifugation at 1000 g for 5 min to remove the excess of unincorporated nucleotide.
The 3′-labeled oligonucleotide was mixed with the same amount of unlabeled complementary strand in annealing buffer (i.e. 10 mM Tris-HCl, pH 7.8, […]) and annealed by heating the reaction mixture for 5 min at 95° C. followed by slow cool down at room temperature. […]
Imaging and quantification of the cleavage products were performed using a Typhoon Phosphorimager (Amersham Biosciences) as described in Inhibition of Topoisomerase I cleavage activity by thiol-reactive compounds. […]

[3] = system: female Swiss mice; test: Acute systemic toxicity, main test, intravenous; type: in vivo, mouse
Procedure: The SDD was administered by intravenous route at the dose of 50 mg/kg body weight to a group of 5 female Swiss mice. The experimental protocol was established from the International standard NF EN ISO 10993-11 concerning biological evaluation of medical devices: “Tests for systemic toxicity”.

[4] = A549, SDD 20 μM, 72 h, percentage of total cell population
[5] = 50 mg/kg iv, 1 hour after administration

## CCN1C[C@]2(COC)[C@H](O)C[C@H](OC)[C@]34C1[C@H]([C@H](OC)[C@H]23)[C@]1(OC(=O)CCCCCCC(=O)O[C@]23[C@H]5[C@@H](OC(=O)c6ccccc6)[C@](O)(C[C@H]5[C@@]56C7[C@@H]2[C@H](OC)[C@@H]5[C@](COC)(CN7CC)[C@H](O)C[C@@H]6OC)[C@@H](OC)[C@@H]3O)[C@H]2[C@@H](OC(=O)c3ccccc3)[C@](O)(C[C@H]24)[C@@H](OC)[C@@H]1O [SDD, bis[O-(14-benzoylaconine-8-yl)]-suberate]
[1]; A549, 20 μM
  accumulation of cells in the G2M and S phases: significant accumulation
[1]; A549, SDD 20 μM
  increase of number of cells arrested at S phase as compared to control: more than 100%
  increase of number of cells in the G2M phase as compared to control: 85%
[1]; [4]
  ALL %: 100%
  G0G1 %: 53.04%
  G2M %: 16.42%
  S %: 25.49%
  SUP G2M % (diploidic cells): 2.09%
  SubG1 % (apoptotic cells): 3.34%
[1]; A549, SDD concentration close to IC50
  cell distribution in the cell cycle: altered
[1]; A549, SDD, survival cells
  Percentage of survival cells, G0G1 %: 55.86%
  Percentage of survival cells, G2M %: 17.29%
  Percentage of survival cells, S %: 26.84%
[2]
  Top 1 inhibitory activity compared with camptothecin: no Top 1 inhibitory activity
[3]; 50 mg/kg body weight iv, 5 female Swiss mice
  mortality: No mortality
[3]; [5]
  decrease of the righting reflex (animals affected): 2/5
  decrease of the spontaneous activity (animals affected): 5/5
  eyes partly closed (animals affected): 2/5
[3]; 50 mg/kg iv, end of the study
  macroscopical examination: necrosis at the level of the tail (animals affected): 3/5
[3]; 50 mg/kg iv, first day to fourteenth day
  local finding at the tails: oedema at the level of the tails
[3]; 50 mg/kg iv, throughout the study
  body weight evolution: remained normal
[3]; mouse, intravenous route
  LD50: above 50 mg/kg of body weight
